Source: patent US7759369B2, “Pyridine compounds for the treatment of prostaglandin mediated diseases” (Glaxo Group Limited, priority 2004, dated 2010)
Where a name gives a salt, the structure may show the parent alone.

Legend:
TP receptor = target: T1, TP receptor (Homo sapiens, UniProt P21731); experiment: human TP calcium mobilisation assay (CHO-K1 cells, U46619, FLIPR); assay type: cell-based; settings: free bases or sodium salts; read-out: functional pKi, human TP calcium mobilisation assay (converted)
T1 construct: expressed in transfected cells; host or cells: CHO-K1
T1 sequence (P21731 1-343): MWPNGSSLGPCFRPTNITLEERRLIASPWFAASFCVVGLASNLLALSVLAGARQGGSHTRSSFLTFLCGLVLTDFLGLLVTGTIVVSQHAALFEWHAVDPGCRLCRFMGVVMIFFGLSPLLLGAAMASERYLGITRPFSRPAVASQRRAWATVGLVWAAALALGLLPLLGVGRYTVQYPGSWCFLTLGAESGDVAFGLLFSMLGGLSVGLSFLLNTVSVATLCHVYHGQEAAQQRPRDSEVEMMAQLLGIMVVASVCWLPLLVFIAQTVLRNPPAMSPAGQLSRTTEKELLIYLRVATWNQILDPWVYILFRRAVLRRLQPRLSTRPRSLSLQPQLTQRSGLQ
Description: To determine if a compound has agonist or antagonist activity at the TP receptor a functional calcium mobilisation assay may be performed. Briefly, the antagonist properties of compounds are assessed by their ability to inhibit the mobilisation of intracellular calcium ([Ca^2+]i) in response to activation of TP receptors by the stable TXA2 mimetic U46619 (9,11-dideoxy-11α,9α-epoxy-methanoprostaglandin F2 α; commercially available from e.g Sigma-Aldrich). Increasing concentrations of antagonist reduce the amount of calcium that a given concentration of U46619 can mobilise. The net effect is to displace the U46619 concentration-effect curve. The amount of calcium produced is assessed using a calcium-sensitive fluorescent dye such as Fluo-4, AM and a suitable instrument such as a Fluorimetric Imaging Plate Reader (FLIPR). Increasing amounts of [Ca^2+]i produced by receptor activation increase the amount of fluorescence produced by the dye and give rise to an increasing signal. The signal may be detected using the FLIPR instrument and the data generated may be analysed with suitable curve-fitting software. The agonist activity of the compounds are determined by their ability to cause an increase in intracellular mobilisation in the absence of U46619.
(§1) The human TP calcium mobilisation assay utilises Chinese hamster ovary-K1 (CHO-K1) cells into which a stable (pCIN; BioTechniques 20 (1996): 102-110) vector containing TP cDNA has previously been transfected. Cells are cultured in suitable flasks containing culture medium such as DMEM:F-12 supplemented with 10% v/v foetal calf serum, 2 mM L-glutamine, 0.25 mg/ml geneticin, 100 μM flurbiprofen and 10 μg/ml puromycin.
(§2) For assay, cells are harvested using a proprietary reagent that dislodges cells such as Versene. Cells are re-suspended in a suitable quantity of fresh culture media for introduction into a 96-well plate. Following incubation for 24 hours at 37° C. the culture media is replaced with a medium containing Fluo-4 and the detergent pluronic acid, and a further incubation takes place. Concentrations of compounds are then added to the plate in order to construct concentration-effect curves. This may be performed on the FLIPR in order to assess the agonist properties of the compounds. Concentrations of U46619 are then added to the plate in order to assess the antagonist properties of the compounds.
The data so generated may be analysed by means of a computerised curve-fitting routine. The concentration of compound that elicits a half-maximal inhibition of the calcium mobilisation induced by U46619 (plC50) may then be estimated, and the percentage activation caused by the compounds directly can be used to determine if there is any agonism present.

EP1 receptors = target: T2, EP1 receptors (Homo sapiens, UniProt P34995); experiment: human EP1 calcium mobilisation assay (CHO-K1 cells, PGE2, FLIPR); assay type: cell-based; design: expressed in transfected cells; host or cells: CHO-K1; settings: free bases or sodium salts; averages of a number of experiments; read-out: functional pKi value, human EP1 calcium mobilisation assay (converted)
T2 sequence (P34995 1-402): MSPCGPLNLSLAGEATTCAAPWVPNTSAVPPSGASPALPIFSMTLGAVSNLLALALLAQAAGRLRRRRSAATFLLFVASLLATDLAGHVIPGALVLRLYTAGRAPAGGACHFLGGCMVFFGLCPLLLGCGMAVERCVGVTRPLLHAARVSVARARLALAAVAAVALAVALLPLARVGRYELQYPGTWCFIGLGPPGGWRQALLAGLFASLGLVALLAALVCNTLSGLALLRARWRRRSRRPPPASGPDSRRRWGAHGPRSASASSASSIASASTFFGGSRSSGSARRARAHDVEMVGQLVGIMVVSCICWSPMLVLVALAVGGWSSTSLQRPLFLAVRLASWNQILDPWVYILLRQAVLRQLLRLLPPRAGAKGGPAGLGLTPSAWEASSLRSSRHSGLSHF
Description: Briefly, the antagonist properties of compounds are assessed by their ability to inhibit the mobilisation of intracellular calcium ([Ca^2+]i) in response to activation of EP1 or EP3 receptors by the natural agonist hormone prostaglandin E2 (PGE2). Increasing concentrations of antagonist reduce the amount of calcium that a given concentration of PGE2 can mobilise. The net effect is to displace the PGE2 concentration-effect curve to higher concentrations of PGE2. The amount of calcium produced is assessed using a calcium-sensitive fluorescent dye such as Fluo-4, AM and a suitable instrument such as a Fluorimetric Imaging Plate Reader (FLIPR). Increasing amounts of [Ca^2+]i produced by receptor activation increase the amount of fluorescence produced by the dye and give rise to an increasing signal. The signal may be detected using the FLIPR instrument and the data generated may be analysed with suitable curve-fitting software.
as §1, with “human EP1 or EP3” for “human TP”, “assay (hereafter referred to as ‘the calcium assay’)” for “assay”, “containing either EP1 or EP3” for “containing TP”, “10 µg/ml” for “10 μg/ml”
as §2, with “384-well” for “96-well”, “PGE2” for “U46619”
The data so generated may be analysed by means of a computerised curve-fitting routine. The concentration of compound that elicits a half-maximal inhibition of the calcium mobilisation induced by PGE2 (pIC50) may then be estimated.

Compound | Ki (TP receptor) [nM] | Ki (EP1 receptors) [nM]
O=C(O)c1cccc(Cc2cc(Cl)ccc2OCc2ccc(Cl)cc2F)n1 [Example 3, Sodium 6-[(5-chloro-2-{[(4-chloro-2-fluorophenyl)methyl]oxy}phenyl)methyl]-2-pyridinecarboxylate] | ≤ 31.6 | ≤ 31.6
O=C(O)c1cccc(Cc2cc(Cl)ccc2OCc2ccc(F)cc2F)n1 [Example 4, Sodium 6-[(5-chloro-2-{[(2,4-difluorophenyl)methyl]oxy}phenyl)methyl]-2-pyridinecarboxylate] | < 1000 | ≤ 31.6
O=C(O)c1cccc(Cc2cc(Cl)ccc2OCc2cc(F)c(F)cc2F)n1 [Example 10, Sodium 6-[(5-chloro-2-{[(2,4,5-trifluorophenyl)methyl]oxy}phenyl)methyl]-2-pyridinecarboxylate] | < 1000 | < 1000
O=C(O)c1cccc(Cc2cc(Cl)ccc2OCc2ccc(F)cc2Cl)n1 [Example 11, Sodium 6-[(5-chloro-2-{[(2-chloro-4-fluorophenyl)methyl]oxy}phenyl)methyl]-2-pyridinecarboxylate] | < 1000 | < 1000
O=C(O)c1cccc(Cc2cc(Cl)ccc2OCc2ccc(Cl)cc2Cl)n1 [Example 12, Sodium 6-[(5-chloro-2-{[(2,4-dichlororophenyl)methyl]oxy}phenyl)methyl]-2-pyridinecarboxylate] | ≤ 31.6 | ≤ 31.6
O=C(O)c1cccc(Cc2cc(Cl)ccc2OCC2CCCC2)n1 [Example 14, Sodium 6-({5-chloro-2-[(cyclopentylmethyl)oxy]phenyl}methyl)-2-pyridinecarboxylate] | < 1000 | < 1000
O=C(NS(=O)(=O)c1ccccc1)c1cccc(Cc2cc(Cl)ccc2OCc2ccc(Cl)cc2F)n1 [Example 28, 6-[(5-chloro-2-{[(4-chloro-2-fluorophenyl)methyl]oxy}phenyl)-methyl]-N-(phenylsulphonyl)-2-pyridinecarboxamide] | < 1000 | ≤ 31.6
CS(=O)(=O)NC(=O)c1cccc(Cc2cc(Cl)ccc2OCc2ccc(Cl)cc2F)n1 [Example 29, 6-[(5-Chloro-2-{[(4-chloro-2-fluorophenyl)methyl]oxy}-phenyl)methyl]-N-(methylsulphonyl)-2-pyridinecarboxamide] | > 1000 | ≤ 31.6
CCCS(=O)(=O)NC(=O)c1cccc(Cc2cc(Cl)ccc2OCc2ccc(Cl)cc2F)n1 [Example 30, 6-[(5-Chloro-2-{[(4-chloro-2-fluorophenyl)methyl]oxy}-phenyl)methyl]-N-(propylsulphonyl)-2-pyridinecarboxamide] | < 1000 | ≤ 31.6
O=C(NS(=O)(=O)c1ccc(Br)cc1)c1cccc(Cc2cc(Cl)ccc2OCc2ccc(Cl)cc2F)n1 [Example 33, N-[(4-Bromophenyl)sulphonyl]-6-[(5-chloro-2-{[(4-chloro-2-fluorophenyl)methyl]oxy}phenyl)-methyl]-2-pyridinecarboxamide] | > 1000 | < 1000
O=C(NS(=O)(=O)c1cccc(Br)c1)c1cccc(Cc2cc(Cl)ccc2OCc2ccc(Cl)cc2F)n1 [Example 34, N-[(3-Bromophenyl)sulphonyl]-6-[(5-chloro-2-{[(4-chloro-2-fluorophenyl)methyl]oxy}phenyl)-methyl]-2-pyridinecarboxamide] | ≤ 31.6 | ≤ 31.6
Cc1noc(C)c1S(=O)(=O)NC(=O)c1cccc(Cc2cc(Cl)ccc2OCc2ccc(Cl)cc2F)n1 [Example 36, 6-[(5-Chloro-2-{[(4-chloro-2-fluorophenyl)methyl]oxy}-phenyl)methyl]-N-[(3,5-dimethyl-4-isoxazolyl)sulphonyl]-2-pyridinecarboxamide] | < 1000 | ≤ 31.6
Fc1cc(Cl)ccc1COc1ccc(Cl)cc1Cc1cccc(-c2nnn[nH]2)n1 [Example 38, 2-[(5-Chloro-2-{[(4-chloro-2-fluorophenyl)methyl]oxy}phenyl)-methyl]-6-(1H-tetrazol-5-yl)pyridine] | ≤ 31.6 | ≤ 31.6
Cc1ccc(C(=O)O)nc1Cc1cc(Cl)ccc1OCc1ccc(Cl)cc1F [Example 39, 6-[(5-Chloro-2-{[(4-chloro-2-fluorophenyl)methyl]oxy}-phenyl)methyl]-5-methyl-2-pyridinecarboxylic acid, sodium salt] | ≤ 31.6 | < 1000
